Reference: ChEMBL document CHEMBL1201862, “PubChem BioAssay data set” (2004)
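Method: 48-hour compound exposure of cells in 96-well plates, five concentrations, linear interpolation of endpoints. GI50 is the concentration that inhibits growth by half.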 Activity calls are given as the source filed them. No stated cut-off is given here; in the data, active = GI50 up to about 1.1 µM and inactive = higher.

Key:
Test in all cases: NCI tumour cell line growth inhibition, 48 h
[1] = test system: 786-0
[2] = test system: A498
[3] = test system: A549
[4] = test system: ACHN
[5] = test system: CAKI-1
[6] = test system: CCRF-CEM
[7] = test system: COLO 205
[8] = test system: DLD-1
[9] = test system: DMS-114
[10] = test system: DMS-273
[11] = test system: EKVX
[12] = test system: HCT-116
[13] = test system: HCT-15
[14] = test system: HOP-18
[15] = test system: HOP-62
[16] = test system: HOP-92
[17] = test system: HT-29
[18] = test system: IGROV-1
[19] = test system: K562
[20] = test system: KM-20L2
[21] = test system: KM12
[22] = test system: LOX IMVI
[23] = test system: M19-MEL
[24] = test system: Malme-3M
[25] = test system: NCI-H23
[26] = test system: NCI-H460
[27] = test system: OVCAR-3
[28] = test system: OVCAR-4
[29] = test system: OVCAR-5
[30] = test system: OVCAR-8
[31] = test system: RPMI-8226
[32] = test system: RXF 393
[33] = test system: SF-268
[34] = test system: SF-295
[35] = test system: SF-539
[36] = test system: SK-MEL-28
[37] = test system: SK-MEL-2
[38] = test system: SK-MEL-5
[39] = test system: SN12C
[40] = test system: SNB-19
[41] = test system: SNB-75
[42] = test system: SNB-78
[43] = test system: SR
[44] = test system: SW-620
[45] = test system: TK-10
[46] = test system: U-251
[47] = test system: UACC-257
[48] = test system: UACC-62
[49] = test system: HCC 2998
[50] = test system: HL-60
[51] = test system: LXFL 529
[52] = test system: M14
[53] = test system: MOLT-4
[54] = test system: NCI-H226
[55] = test system: NCI-H522
[56] = test system: SK-OV-3
[57] = test system: UO-31

C=CCCc1cc(OC)ccc1CN(C)C(C)(C)CO
GI50 [1]: > 100 µM (inactive) | GI50 [2]: > 100 µM (inactive) | GI50 [3]: > 100 µM (inactive) | GI50 [4]: > 100 µM (inactive) | GI50 [5]: > 100 µM (inactive) | GI50 [6]: > 100 µM (inactive) | GI50 [7]: > 100 µM (inactive) | GI50 [8]: > 100 µM (inactive) | GI50 [9]: > 100 µM (inactive) | GI50 [10]: > 100 µM (inactive) | GI50 [11]: > 100 µM (inactive) | GI50 [12]: > 100 µM (inactive) | GI50 [13]: > 100 µM | GI50 [14]: > 100 µM (inactive) | GI50 [15]: > 100 µM (inactive) | GI50 [16]: > 100 µM (inactive) | GI50 [17]: > 100 µM (inactive) | GI50 [18]: > 100 µM (inactive) | GI50 [19]: > 100 µM (inactive) | GI50 [20]: > 100 µM (inactive) | GI50 [21]: > 100 µM (inactive) | GI50 [22]: > 100 µM (inactive) | GI50 [23]: > 100 µM (inactive) | GI50 [24]: > 100 µM (inactive) | GI50 [25]: > 100 µM (inactive) | GI50 [26]: > 100 µM (inactive) | GI50 [27]: > 100 µM (inactive) | GI50 [28]: > 100 µM (inactive) | GI50 [29]: > 100 µM (inactive) | GI50 [30]: > 100 µM (inactive) | GI50 [31]: > 100 µM (inactive) | GI50 [32]: > 100 µM (inactive) | GI50 [33]: > 100 µM (inactive) | GI50 [34]: > 100 µM (inactive) | GI50 [35]: > 100 µM (inactive) | GI50 [36]: > 100 µM (inactive) | GI50 [37]: > 100 µM (inactive) | GI50 [38]: > 100 µM (inactive) | GI50 [39]: > 100 µM (inactive) | GI50 [40]: > 100 µM (inactive) | GI50 [41]: 85.7 µM (inactive) | GI50 [42]: > 100 µM (inactive) | GI50 [43]: > 100 µM (inactive) | GI50 [44]: > 100 µM (inactive) | GI50 [45]: > 100 µM (inactive) | GI50 [46]: > 100 µM (inactive) | GI50 [47]: > 100 µM (inactive) | GI50 [48]: > 100 µM (inactive)

COc1ccc2[nH]c3c(O)nncc3c2c1
GI50 [1]: 90.8 µM (inactive) | GI50 [2]: > 100 µM (inactive) | GI50 [3]: > 100 µM (inactive) | GI50 [4]: > 100 µM (inactive) | GI50 [6]: > 100 µM (inactive) | GI50 [7]: > 100 µM (inactive) | GI50 [8]: > 100 µM (inactive) | GI50 [9]: > 100 µM (inactive) | GI50 [10]: > 100 µM (inactive) | GI50 [11]: 8.45 µM (inactive) | GI50 [49]: > 100 µM (inactive) | GI50 [12]: > 100 µM (inactive) | GI50 [13]: > 100 µM | GI50 [50]: > 100 µM (inactive) | GI50 [14]: > 100 µM (inactive) | GI50 [15]: > 100 µM (inactive) | GI50 [16]: 35.1 µM (inactive) | GI50 [17]: > 100 µM (inactive) | GI50 [18]: > 100 µM (inactive) | GI50 [19]: > 100 µM (inactive) | GI50 [21]: > 100 µM (inactive) | GI50 [22]: > 100 µM (inactive) | GI50 [51]: > 100 µM (inactive) | GI50 [52]: > 100 µM (inactive) | GI50 [23]: > 100 µM (inactive) | GI50 [53]: > 100 µM (inactive) | GI50 [24]: > 100 µM (inactive) | GI50 [54]: > 100 µM (inactive) | GI50 [25]: > 100 µM (inactive) | GI50 [26]: > 100 µM (inactive) | GI50 [55]: > 100 µM (inactive) | GI50 [27]: > 100 µM (inactive) | GI50 [28]: > 100 µM (inactive) | GI50 [29]: > 100 µM (inactive) | GI50 [30]: > 100 µM (inactive) | GI50 [31]: > 100 µM (inactive) | GI50 [33]: > 100 µM (inactive) | GI50 [34]: > 100 µM (inactive) | GI50 [35]: > 100 µM (inactive) | GI50 [36]: > 100 µM (inactive) | GI50 [37]: 71.3 µM (inactive) | GI50 [38]: > 100 µM (inactive) | GI50 [56]: 45.7 µM (inactive) | GI50 [40]: > 100 µM (inactive) | GI50 [41]: 16.4 µM (inactive) | GI50 [42]: > 100 µM (inactive) | GI50 [43]: > 100 µM (inactive) | GI50 [44]: > 100 µM (inactive) | GI50 [45]: > 100 µM (inactive) | GI50 [46]: > 100 µM (inactive) | GI50 [47]: > 100 µM (inactive) | GI50 [48]: 53.2 µM (inactive) | GI50 [57]: > 100 µM (inactive)

CC(=O)Oc1cc(OC(C)=O)c2c(=O)c3ccccc3n(C)c2c1
GI50 [3]: 41.3 µM (inactive) | GI50 [4]: 22 µM (inactive) | GI50 [8]: 21.9 µM (inactive) | GI50 [9]: 18.4 µM (inactive) | GI50 [10]: 16 µM (inactive) | GI50 [12]: 26.1 µM (inactive) | GI50 [13]: 42.1 µM | GI50 [14]: 14 µM (inactive) | GI50 [17]: 23.7 µM (inactive) | GI50 [18]: 14.7 µM (inactive) | GI50 [21]: 33.2 µM (inactive) | GI50 [22]: 11.5 µM (inactive) | GI50 [51]: 34.8 µM (inactive) | GI50 [23]: 21.6 µM (inactive) | GI50 [53]: 38 µM (inactive) | GI50 [24]: 25.7 µM (inactive) | GI50 [54]: 17.1 µM (inactive) | GI50 [25]: 22.6 µM (inactive) | GI50 [26]: 19.4 µM (inactive) | GI50 [55]: 10.4 µM (inactive) | GI50 [27]: 56.9 µM (inactive) | GI50 [28]: 48.9 µM (inactive) | GI50 [30]: 16 µM (inactive) | GI50 [32]: 34 µM (inactive) | GI50 [33]: 23.2 µM (inactive) | GI50 [34]: 13.1 µM (inactive) | GI50 [35]: 18.7 µM (inactive) | GI50 [36]: 25.4 µM (inactive) | GI50 [37]: 33 µM (inactive) | GI50 [38]: 15.1 µM (inactive) | GI50 [56]: 25.2 µM (inactive) | GI50 [39]: 25.5 µM (inactive) | GI50 [40]: 33.7 µM (inactive) | GI50 [41]: 27.4 µM (inactive) | GI50 [42]: 31.6 µM (inactive) | GI50 [45]: 29.8 µM (inactive) | GI50 [47]: 30.1 µM (inactive) | GI50 [48]: 31.8 µM (inactive) | GI50 [57]: 21.2 µM (inactive)
